From patent US7071383B2, “Chimeric genes and methods for increasing the lysine and threonine content of the seeds of plants” (E. I. du Pont de Nemours and Company, priority 1992, dated 2006)
pIC50: −log10 of the molar value. Where “and” joins values, the source holds several entries; their conditions need not be identical. Identical values can stand only once.

What was measured:
[1] = tested on: Gif106M1 transformed with pBT436; test: Growth inhibition by lysine in M9 media; type: cell-based, E. coli
Protocol: Addition of lysine (or diaminopimelate which is readily converted to lysine in vivo) at a concentration of approximately 0.2 mM to the growth medium inhibits the growth of Gif106M1 transformed with pBT436. M9 media [see Sambrook et al. (1989) Molecular Cloning, A Laboratory Manual, Cold Spring Harbor Laboratory Press] supplemented with the arginine and isoleucine, required for Gif106M1 growth, and ampicillin, to maintain selection for the pBT436 plasmid, was used. This inhibition is reversed by addition of threonine plus methionine to the growth media. […] This property of pBT436-transformed Gif106M1 was used to select for mutations in lysC that encoded lysine-insensitive AKIII.

[2] = target: T1, Corynebacterium DHDPS (Corynebacterium glutamicum, UniProt P19808); test: DHDPS enzyme assay, sensitivity to L-lysine; type: biochemical; conditions: 70 mM L-lysine
T1 construct: made in house; host or cells: E. coli BL21(DE3), supernatant of uninduced extract
Protocol: (§1) DHDPS enzyme activity was assayed as follows: Assay mix (for 10×1.0 mL assay tubes or 40×0.25 mL for microtiter dish); made fresh, just before use:
(§2) Color allowed to develop for 30-60 min. Precipitate spun down in eppendorf centrifuge. OD540 vs 0 min read as blank. For MicroAssay, aliquot 0.2 mL into microtiter well and read at OD530.
E. coli DHDPS was sensitive to the presence of L-lysine in the assay. Fifty percent inhibition was found at a concentration of about 0.5 mM. For Corynebacterium DHDPS, the activity was measured in the supernatant fraction of uninduced extracts, rather than induced extracts. Enzyme activity was about 4 OD530 units per min per milligram protein in a 0.25 mL assay.

[3] = tested on: DE126; test: Growth inhibition by L-lysine in synthetic medium; type: cell-based, E. coli
Protocol: (4) This step involves production of a male derivative of strain DE125. Strain DE125 was mated with the male strain AB1528 [F′16/delta(gpt-proA)62, lacY1 or lacZ4, glnV44, galK2 rac^−(?), hisG4, rfbd1, mgl-51, kdgK51(?), ilvC7, argE3, thi-1] (E. coli Genetic Stock Center #1528) by the method of conjugation. F′16 carries the ilvGMEDAYC gene cluster. The two strains were cross streaked on rich medium permissive for the growth of each strain. After incubation, the plate was replica plated to a synthetic medium containing tetracycline, arginine, vitamin B1 and glucose. DE125 cannot grow on this medium because it cannot synthesize isoleucine. Growth of AB1528 is prevented by the inclusion of the antibiotic tetracycline and the omission of proline and histidine from the synthetic medium. A patch of cells grew on this selective medium. These recombinant cells underwent single colony isolation on the same medium. The phenotype of one clone was determined to be Ilv^+, Arg^−, TetR, Lysine-sensitive, male specific phage (MS2)-sensitive, consistent with the simple transfer of F′16 from AB1528 to DE125. This clone was designated DE126 and has the genotype F′16/malE52::Tn10, arg^−, ilvA296, thrA1101, metL100, lysC^+, λ^−, rpsL9, malT1, xyl-7, mtl-2, thi-1?, supE44?. It is inhibited by 20 μg/mL of L-lysine in a synthetic medium.

[4] = tested on: tobacco DHDPS; test: DHDPS enzyme assay of plant extracts, sensitivity to lysine; type: biochemical
Protocol: The leaf extracts were assayed for DHDPS activity as described in Example 4.
To test this hypothesis, total protein extracts were prepared from mature seeds and assayed for DHDPS activity. Approximately 30-40 mg of seeds were put into a 1.5 mL disposable plastic microfuge tube and ground in 0.25 mL of 50 mM Tris-HCl, 50 mM NaCl, 1 mM EDTA (TNE). The grinding was done using a motorized grinder with disposable plastic shafts designed to fit into the microfuge tube. The resultant suspensions were centrifuged for 5 min at room temperature in a microfuge to remove particulates. Approximately 0.1 mL of aqueous supernatant was removed between the pelleted material and the upper oil phase. The seed extracts were assayed for DHDPS activity as described in Example 4.
To assay for expression of the chimeric genes in leaves of the transformed plants, protein was extracted as described in Example 7 for AKIII, and as described in Example 9 for DHDPS. The leaf extracts were assayed for DHDPS activity as described in Examples 4 and 9. […] Extracts were characterized immunologically for expression of AKIII and DHDPS proteins via Western blots as described in Examples 7 and 10.

[5] = target: T2, E. coli DHDPS (Escherichia coli, UniProt P0A6L2, F2V); test: biochemical; type: biochemical
T2 construct: the chloroplast targeting signal fused to the entire ecodapA coding region; expressed in transfected cells; host or cells: transgenic tobacco plants, leaf extracts (35S promoter) or mature seed extracts (phaseolin promoter)
Protocol: as §1, §2
For Corynebacterium DHDPS, the activity was measured in the supernatant fraction of uninduced extracts, rather than induced extracts.

[6] = target: T3, AKIII-M4 (Escherichia coli, UniProt P08660, G401A/T352I); test: AK enzyme assay, sensitivity to L-lysine; type: biochemical, E. coli; conditions: 15 mM L-lysine
T3 construct: made in house; host or cells: E. coli BL21(DE3), crude extract
Protocol: (§3) AK activity was assayed as shown below:
(§4) Assay mix (for 12 assay tubes): • 4.5 mL H2O • 1.0 mL 8M KOH • 1.0 mL 8M NH2OH-HCl • 1.0 mL IM Tris-HCl pH 8.0 • 0.5 mL 0.2M ATP (121 mg/mL in 0.2M NaOH) • 50 μL 1M MgSO4
(§5) Each 1.5 mL eppendorf assay tube contained: • 0.64 mL assay mix • 0.04 mL 0.2 M L-aspartic acid or 0.04 mL H2O • 0.0005-0.12 mL extract • H2O to total volume 0.8 mL
(§6) Assay tubes were incubated at 30° C. for desired time (10-60 min). Then 0.4 mL FeCl3 reagent (10% w/v FeCl3, 3.3% trichloroacetic acid, 0.7 M HCl) was added and the material centrifuged for 2 min in an eppendorf centrifuge. The supernatant was decanted. The OD was read at 540 nm and compared to the aspartyl-hydroxamate standard.
(§7) Approximately 80% of the AKIII activity was in the supernatant fraction. The specific activity of wild type and mutant crude extracts was 5-7 μM product per min per milligram total protein. Wild type AKIII was sensitive to the presence of L-lysine in the assay.

[7] = target: T4, Wild type AKIII (Escherichia coli, UniProt P08660, G401A); test: AK enzyme assay, sensitivity to L-lysine; type: biochemical, E. coli
T4 construct: the coding region of the wild type E. coli lysC gene, which encodes AKIII; made in house; host or cells: E. coli BL21(DE3), supernatant of crude extract
Protocol: as §3, §4, §5, §6, §7

[8] = target: T5, AKIII-M3 (Escherichia coli, UniProt P08660, G401A/T352I); test: AK enzyme assay, sensitivity to L-lysine; type: biochemical, E. coli; conditions: 15 mM L-lysine
T5 construct: made in house; host or cells: E. coli BL21(DE3), crude extract
Protocol: as §3, §4, §5, §6, §7

[9] = target: T6, AKIII-M2 (Escherichia coli, UniProt P08660, G401A/M318I); test: AK enzyme assay, sensitivity to L-lysine; type: biochemical, E. coli; conditions: 15 mM L-lysine
T6 construct: made in house; host or cells: E. coli BL21(DE3), crude extract
Protocol: as §3, §4, §5, §6, §7

T2 sequence (P0A6L2 whole entry F2V, the tested form may be a part): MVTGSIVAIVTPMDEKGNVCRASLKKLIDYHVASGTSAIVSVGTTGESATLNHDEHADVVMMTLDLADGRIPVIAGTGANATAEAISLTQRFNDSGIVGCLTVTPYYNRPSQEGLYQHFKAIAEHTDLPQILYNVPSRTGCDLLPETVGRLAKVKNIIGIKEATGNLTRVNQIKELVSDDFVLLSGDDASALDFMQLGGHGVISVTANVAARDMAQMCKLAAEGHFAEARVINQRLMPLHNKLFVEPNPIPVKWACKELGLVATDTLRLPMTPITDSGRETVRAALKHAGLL
T4 sequence (P08660 other isoform, or with tags, fused parts or gaps G401A): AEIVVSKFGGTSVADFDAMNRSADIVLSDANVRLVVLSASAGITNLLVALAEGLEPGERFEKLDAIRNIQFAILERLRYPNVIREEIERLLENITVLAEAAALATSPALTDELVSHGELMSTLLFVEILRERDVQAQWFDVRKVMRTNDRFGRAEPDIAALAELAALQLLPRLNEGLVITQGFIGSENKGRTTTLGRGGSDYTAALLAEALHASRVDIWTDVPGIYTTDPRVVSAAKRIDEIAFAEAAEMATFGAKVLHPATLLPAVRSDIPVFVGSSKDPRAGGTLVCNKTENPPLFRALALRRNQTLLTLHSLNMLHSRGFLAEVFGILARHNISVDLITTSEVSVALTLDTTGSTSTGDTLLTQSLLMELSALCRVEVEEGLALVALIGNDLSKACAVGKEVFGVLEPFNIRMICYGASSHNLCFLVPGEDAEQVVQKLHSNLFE
T3 sequence (P08660 other isoform, or with tags, fused parts or gaps T352I/G401A): as the sequence (P08660 other isoform, or with tags, fused parts or gaps G401A) above, with T351I counted along it
T5 sequence (P08660 other isoform, or with tags, fused parts or gaps T352I/G401A): as the sequence (P08660 other isoform, or with tags, fused parts or gaps G401A) above, with T351I counted along it
T1 sequence (P19808 other isoform, or with tags, fused parts or gaps): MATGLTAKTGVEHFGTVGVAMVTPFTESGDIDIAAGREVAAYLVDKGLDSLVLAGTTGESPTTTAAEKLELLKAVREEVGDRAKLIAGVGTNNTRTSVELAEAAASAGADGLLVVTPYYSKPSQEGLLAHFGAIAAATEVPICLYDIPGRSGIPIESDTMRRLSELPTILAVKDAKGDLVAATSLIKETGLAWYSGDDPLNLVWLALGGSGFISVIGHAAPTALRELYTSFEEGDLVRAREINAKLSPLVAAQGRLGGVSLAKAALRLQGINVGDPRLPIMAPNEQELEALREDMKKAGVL
T6 sequence (P08660 other isoform, or with tags, fused parts or gaps M318I/G401A): as the sequence (P08660 other isoform, or with tags, fused parts or gaps G401A) above, with M317I counted along it

NCCCC[C@H](N)C(=O)O [L-lysine]
concentration in growth medium that inhibits growth [1]: approximately 0.2 mM
inhibition by L-lysine [2]: not inhibited at all
concentration that inhibits growth [3]: 20 µg/mL
inhibition by lysine ([4]; 0.1 mM lysine, leaf extracts): completely inhibited
inhibition by lysine ([4]; 0.4 mM lysine, seed extracts): completely inhibited
pIC50 [5]: ~3.30
activity retained ([5]; 0.1 mM lysine, leaf extracts): 80-90%
activity retained ([5]; 0.4 mM lysine, seed extracts): about 50%
fold less sensitive to inhibition by lysine than a typical plant DHDPS ([5]; vs wheat germ DHDPS): about 20 fold
inhibition by L-lysine [6]: not inhibited at all
inhibition of wild type AKIII ([7]; 1 mM lysine): > 90%
pIC50 ([7]; L-lysine concentration for fifty percent inhibition of AKIII, crude extract): ~3.40 and 3.40 to 3.52
inhibition by L-lysine [8]: not inhibited at all
inhibition by L-lysine [9]: not inhibited at all
